# Measurements: ChEMBL document CHEMBL1145704, “Absolute Configuration of 2,6-Dimethylheptyl Sulfate and Its Distribution in Ascidiacea” (J Nat Prod, 1997)
# What was measured:
# [1] = Toxicity against Artemia salina L EACH; assay type: organism-based; conditions: in vivo
# Gambusia affinis = test: Toxicity in Gambusia affinis upto 100 ug/mL by lethality assay; assay type: organism-based; conditions: in vivo
compound,measurement,setting,value
CC(C)CCC[C@@H](C)COS(=O)(=O)[O-].[Na+],LC50,[1],17.8 µg/mL
same,Activity,Gambusia affinis,Non-toxic
